According to US20140120106A1, “Stimulation of Arterial Collateral Growth and Lymphogenesis” (YALE UNIVERSITY, priority 2011, published 2014):

How the values were obtained:
HUVEC [1] = assay: qPCR of lymphatic fate genes in RAF1-transduced HUVEC treated with pathway inhibitors for 24 hours; assay type: cell-based, Human; conditions: HUVEC with GFP or RAF1S259A adenovirus, Rapamycin 10 nM, AKT inhibitor VIII 1 μM
Procedure: ERK activation was quantified by densitometry and is represented as ratio of pERK1/2 versus total ERK1/2. Immunofluorescence staining showing higher P-ERK1/2 in β-GAL positive endothelial cells of E12.5 S259A embryos. jv, jugular vein. FIGS. 10B-10E are graphs showing HUVEC transduced with control, wild type Raf1 or RAF1S259A lentiviruses treated with DMSO, MEK inhibitor U0126 (10 μM) or PI3K inhibitor LY294002 (10 μM) for 24 hours. Sox18 (FIG. 10B), Prox1 (Figure), Vegfr3 (FIG. 10D) and Lyve1 (10E) expression was assessed by qPCR. FIGS. 10E-10H are graphs showing HUVEC transduced with GFP or RAF1S259A adenoviruses treated with DMSO, Rapamycin (10 nM), AKT inhibitor VIII (1 μM) and LY294002 (10 μM) for 24 hours. Sox18 (FIG. 10F), Prox1 (FIG. 10G) and Coup-TFII (FIG. 10H) expression assessed by qPCR. Data are Mean±SEM (n=3).*, p<0.05; **, p<0.01.
(§1) Total RNA was purified using a QiagenRNeasyPlus Mini kit. cDNA was synthesized using a Bio-Rad iScript cDNA Synthesisis kit. qPCR was performed using a Bio-Rad iQ SYBR Green Supermix on a Bio-Rad CFX96 Real Time System. For immunoblot, cells were lysed in RIPA buffer supplemented with protease and phosphatase inhibitors. Cell lysates were then separated with 4-20% gradient gel (Bio-Rad) and subjected to immunoblot.

HUVEC [2] = assay: Western blot of DLL4, cleaved NOTCH1 and ERK in RAF1 virus infected HUVEC; assay type: cell-based, Human
14-3-3 = assay: Immunoprecipitation of HA-RAF1 from HUVEC, western blot for 14-3-3; assay type: binding, Human; conditions: anti-HA immunoprecipitation
HUVEC [3] = assay: Proliferation assay (cell counting); assay type: cell-based, Human; conditions: overexpression in HUVEC
Akt1-/- cells = assay: Dll4 expression in AKT+/+ and AKT-/- cells expressing RAF1 constructs; assay type: cell-based
Excerpt: FIGS. 3A to 3M show expression of Dll4 (FIG. 3A), Hey 1 (FIG. 3B), Hey 2 (FIG. 3C), Hes 1 (FIG. 3D), Coup-TFII (FIG. 3E), EphB4 (FIG. 3F), Dll1 (FIG. 3G), Ephrin B2 (FIG. 3G), Notch 1 (FIG. 3I), Notch 4 (FIG. 3J), Jagged 1 (FIG. 3K), FLK1 (FIG. 3L), Nrp1 (3N) and Flt4 (3N).

HUAEC = assay: qPCR of Prox1 in lentivirus-transduced HUAEC; assay type: cell-based, Human; conditions: HUAEC transduced with lentivirus
Excerpt: Raf1 lentiviruses were produced in 293A cells (Invitrogen) by co-transfection of pLVX-HA-Raf1 WT or S259A with lentiviral packaging plasmids pMD2.G, pRSV-REV and pMDLg/pRRE (Addgene) as described by Dull, J Virol 72:8463-8471 (1998). Control lentivirus was also made using an empty vector pLVX-IRES-puro. Ad-MEK1 CA was from Cell Biolabs, Inc. Ad-Mek1 DN was purchased from Vector Biolabs. All adenoviruses were produced, amplified and purified as described by Dull 1998; Luo, et al. Nat Protoc 2:1236-1247 (2007). For lentiviral infection, cells were incubated with lentivirus in growth medium in the presence of 8 μg/ml polybrene (Sigma) for 8 hours. For adenoviral infection, cells were incubated with adenovirus (MOI=100) in growth medium for overnight.
as §1

HUVEC [4] = assay: Apoptosis assay (serum withdrawal, Annexin V/PI flow cytometry); assay type: cell-based, Human; conditions: serum-starved 48 hours, vehicle, versus empty control lentivirus
HDLEC [5] = assay: qPCR of lymphatic fate genes in adenovirus-transduced HDLEC; assay type: cell-based, Human
HUVEC [6] = assay: qPCR of lymphatic fate genes in virus-transduced HUVEC; assay type: cell-based, Human
HUVEC [7] = assay: Matrigel tube formation assay; assay type: cell-based, Human; conditions: overexpression in HUVEC, 8 hours
HUVEC [8] = assay: Migration (wound healing) assay; assay type: cell-based, Human; conditions: under stimulation of serum, 18 hours
[9] = tested on: VE-cadherin-tTA/RAF1S259A double transgenic embryos; assay: Endothelial-specific RAF1S259A transgenic mice (Noonan syndrome mouse model); assay type: in vivo; conditions: primary EC purified from E12.5 S259A embryos versus control littermates
Excerpt: Human wild type Raf1 and RAF1S259A plasmids were gifts of Dr. Guri Tzivion (Wayne State University). To generate RAF1S259A transgenic mice, hRAF1S259A was cloned to NotI+PstI sites of pBI-G Tet-off vector (Clontech). TRE-RAF1S259A transgenic mouse line was then generated at the Yale Animal Genomics Services center. VE-cadherin-tT A mice (Sun, et al. Proc Natl Acad Sci USA 102:128-133 (2005)) were from W. Sessa lab (Yale). Time-mating was setup by intercross of male TRE-RAF1 S259A mice with VE-cadherin-tTA female mice. For paraffin and frozen sections, embryos were fixed in 4% paraformaldehyde for overnight at 4° C.
Primary mouse endothelial cells were isolated from E12.5 embryos using a protocol similar to that described by Ren, et al. J Clin Invest 120:1217-1228 (2010). Briefly, E12.5 embryos were harvested, minced finely with scissors, and then digested in 25 ml collagenase 0.2% (w/v) at 37° C. for 20 minutes. The crude cell preparation was pelleted and resuspended in DPBS. The cell suspension was incubated with CD31-coated beads (Invitrogen) at room temperature for 10 minutes with rotation. Using a magnetic separator, the bead-bound cells were recovered, washed with DMEM-20% FBS. The cells were then used for gene expression analysis by qPCR.

ERK = ERK activation by western blot in HUVEC infected with RAF1 WT or RAF1 S259A lentivirus; assay type: cell-based, Human
HUVEC [10] = assay: qPCR of artery-vein specification genes in lentivirus infected HUVEC; assay type: cell-based, Human
HDLEC [11] = assay: Sox18 expression in serum starved HDLEC stimulated with VEGF-C; assay type: cell-based, Human; conditions: 100 ng/ml VEGF-C
Procedure: FIGS. 11A-11J are graphs showing excessive ERK activation is the basis of lymphatic abnormalities in Noonan syndrome. HUVEC (FIGS. 11A-11D) and HDLEC (FIGS. 11E-11H) were transduced with adenovirus expressing lacZ, cytosolic localized constitutive active ERK (ME) or nuclear localized constitutive active ERK (LA). Sox18 (FIGS. 11A and 11E), Prox1 (FIGS. 11B and 11F), Vegfr3 (FIGS. 11C and 11G) and Lyve1 (FIGS. 11D and 11H) expression were assessed by qPCR. Data are Mean±SEM (n=3). FIG. 11I is a graph of serum starved HDLEC stimulated with 100 ng/ml VEGF-C for an indicated time in the presence of […] (10 μM) or an equal volume of DMSO. Sox18 expression was assessed by qPCR. Data are Mean±SEM (n=3). FIG. 11J is a graph of lymphatic vessel diameter calculated by whole mount staining of skin vasculature of E14.5 embryos treated with MEK inhibitor U0126 or DMSO. Statistical significance was determined by two-tailed t-test (Control, n=5 embryos; S259A, n=3 embryos).
as §1

[12] = adenovirus MOI 0, 5, 10, 50 for 48 hours, HUVEC
[13] = HDLEC transduced with the named construct
[14] = HUVEC transduced with the named construct
[15] = serum-starved HUVEC, 50 ng/ml VEGF-A164
[16] = lentivirus infected HUVEC, qPCR

O=c1[nH]c2ccccc2n1C1CCN(Cc2ccc(-c3nc4cc5[nH]cnc5cc4nc3-c3ccccc3)cc2)CC1 [AKT inhibitor VIII]
Coup-TFII expression (HUVEC [1]): significantly inhibited | Prox1 expression (HUVEC [1]): significantly inhibited | Sox18 expression (HUVEC [1]): slightly inducing

RAF1 S259A: RAF1 Ser259 to Ala259 mutant, not inhibited by AKT; expressed from lentivirus, adenovirus or endothelial transgene
NOTCH1 activation (cleaved NOTCH1) (HUVEC [2]; HUVEC): activated | DLL4 protein (HUVEC [2]; [12]): dose-dependent and parallel increase | ERK activity (HUVEC [2]; [12]): dose-dependent and parallel increase | Dll4 protein (HUVEC [2]; lentivirus overexpression in HUVEC): dramatically increased | co-immunoprecipitation with 14-3-3 (14-3-3): did not | cell proliferation (HUVEC [3]): significantly inhibited | DLL4 expression (Akt1-/- cells): strongly induced | Prox1 expression (HUAEC): upregulated | cell survival (HUVEC [4]): significantly higher survival | Prox1 expression (HDLEC [5]; HDLEC transduced with adenovirus): not | Lyve1 expression (HDLEC [5]; [13]): Increased expression | Sox17 expression (HDLEC [5]; [13]): significant increase | Sox18 expression (HDLEC [5]; [13]): significant increase | Vegfr3 expression (HDLEC [5]; [13]): Increased expression | Sox7 expression (HUVEC [6]; HUVEC transduced with lentivirus): unchanged | Lyve1 expression (HUVEC [6]; [14]): Increased expression | Prox1 expression (HUVEC [6]; [14]): upregulated | Sox17 expression (HUVEC [6]; [14]): significant increase | Sox18 expression (HUVEC [6]; [14]): significant increase | Vegfr3 expression (HUVEC [6]; [14]): Increased expression | Coup-TFII levels (HUVEC [6]; in vitro or in vivo): no significant effect | tube formation (tube length) (HUVEC [7]): significantly improved | cell migration (HUVEC [8]): significantly promoted | Sox18 levels [9]: significantly higher | ERK activation (ERK; overexpression in HUVEC by lentivirus): constitutive activation | Akt signaling (ERK; [15]): remains normal | Erk activation (ERK; [15]): constitutive activation | Egr1 expression (HUVEC [10]; Raf1SA introduction): activated expression | Ets1 expression (HUVEC [10]; Raf1SA introduction): activated expression | Sox7 expression (HUVEC [10]; Raf1SA introduction): not changed | Sox18 expression (HUVEC [10]; Raf1SA introduction): activated expression | Coup-TFII (venous marker) gene expression (HUVEC [10]; [16]): no changes | Dll1 gene expression (HUVEC [10]; [16]): not affected | Dll4 gene expression (HUVEC [10]; [16]): dramatically induced | EphB4 (venous fate gene) expression (HUVEC [10]; [16]): no changes | Ephrin B2 gene expression (HUVEC [10]; [16]): dramatically induced | Flk1 gene expression (HUVEC [10]; [16]): induced | Flt4 gene expression (HUVEC [10]; [16]): induced | Hes1 gene expression (HUVEC [10]; [16]): dramatically induced | Hey1 gene expression (HUVEC [10]; [16]): dramatically induced | Hey2 gene expression (HUVEC [10]; [16]): dramatically induced | Jagged1 gene expression (HUVEC [10]; [16]): dramatically induced | Notch4 gene expression (HUVEC [10]; [16]): dramatically induced | neuropilin1 (Nrp1) gene expression (HUVEC [10]; [16]): dramatically induced | Coup-TFII (venous marker) gene expression (HUVEC [10]; lentivirus infected HUVEC, qPCR, listed as RAF1S259A): slightly inhibiting

B1: VEGF-C: growth factor from R&D, the key VEGF in lymphatic EC (protein, UniProt P49767 112-227, looked up)
Vascular endothelial growth …: AHYNTEILKSIDNEWRKTQCMPREVCIDVGKEFGVATNTFFKPPCVSVYRCGGCCNSEGLQCMNTSTSYLSKTLFEITVPLSQGPKPVTISFANHTSCRCMSKLDVYRQVHSIIRR
Sox18 expression (HDLEC [11]): induced
